Like-named read-outs stand apart in the source and are kept apart here.
Tests used:
IRAK1 [1] = target: T1, IRAK1 (Homo sapiens, UniProt P51617); assay: LanthaScreen Eu Kinase Binding Assay for IRAK1, hit dose-response assay (DRC); conditions: for DRC result, activity class: class by pIC50 value
T1 construct: purchased BPS Bioscience Inc. 40202
Text: The experimental method of LanthaScreen^TM Eu Kinase Binding Assay for IRAK1 was developed based on the Invitrogen^TM IRAK1-GST LanthaScreen^TM binding assay. Purified recombinant IRAK1-His (cat. # 40202) was purchased from BPS Bioscience Inc. (San Diego, CA, USA). Kinase tracer 236 (cat. # PR9078A) was purchased from Thermo Fisher Scientific Inc. (Waltham, MA, USA). Eu-W1024-anti-6xHis antibody (cat. #AD0400) and 384-well white ProxiPlates^TM (cat. # 6008289) were purchased from Perkin Elmer, Inc. (Waltham, MA, USA). Echo-qualified 384 well COC low dead volume source microplates (cat. #001-16128) and Echo-qualified 384 well polypropylene microplates (cat. #001-14615) were purchased from Beckman Coulter Inc.(Indianapolis, IN, USA). The assay was carried out in an enclosed workcell with subdued lighting. All reagents were prepared in the assay buffer (50 mM HEPES, 10 mM MgCl 2 , 1 mM EGTA, 0.01% Brij-35, 1 mM DTT) and kept on ice. These included 2 x tracer 236 (0.2 μ M), 2 x IRAK1 /antibody solution (20 nM IRAK1-His, 4 nM Eu-W1024-anti-6xHis antibody) and 2 x antibody solution (4 nM Eu-W1024-anti-6xHis antibody). Five microliters of 2 x tracer 236 was dispensed into a 384-well white ProxiPlate^TM, followed by either 5 μ l of 2 x IRAK1/antibody solution or 5 μ l of 2 x antibody solution on a Tempest® dispenser (Formulatrix, Inc., Bedford, MA, USA). The plate was sealed on a Wasp plate sealer (KBiosciences Limited, Basildon, Essex, UK) and centrifuged at 1000 x g for 15 s on a HiG^TM automated centrifuge (BioNex Solutions Inc., San Jose, CA, USA) and incubated at room temperature for 30 min. The plate was then peeled and read on a PHERAstar® FSX (BMG LABTECH Inc., Cary, NC, USA) with a LanthaScreen^TM module at 340/615, 665 nm. The TR-FRET ratio (acceptor emission/donor emission x 10,000) was used as the readout.
A dose-response assay was conducted for each of the compound in the diversified set of 283 hits. Each compound was assayed in an 8-point curve with approximately 4-fold dilutions (subject to Echo dispense volume limits), starting at 30 μ M, and the assays were run in triplicates. The exact concentrations are 30, 7.5, 1.875, 0.469, 0.117, 0.029, 0.007, 0.002 μM . In each plate, three replicates of a staurosporine titration curve starting at 3 μ M were assayed in parallel as a reference.
The IC 50 of each dose-response curve was derived by fitting a four-parameter logistic (4PL) model, shown in Eq. 3, where the respective variables are defined as follows: • A : Minimum asymptote. Response value when x approaches infinity. • D : Maximum asymptote. Response value when x is very small or close to zero. • B : Slope factor (Hill’s slope). Steepness of the curve. • C : Inflection point. The concentration of the analyte that gives half-maximal response. 3 f(x)=A+D-A/1+x/C^B The 4PL model was fitted for each compound with data points for all three replicates all at once. As an additional quality control, 4PL regression models for all sub-micromolar compounds were manually inspected. Computed IC 50 were capped within the range of measured concentrations. In seven cases, where curve fits were erroneous and produced IC 50 values above assay sensitivity range, IC 50 values were reduced to the highest concentration used in the assay (30 μ M).

IRAK1 [2] = target: T1, IRAK1; conditions: read-out: affinity; cited from earlier work
[3] = 8-point curve from 30 μM, triplicates, 4PL fit, read-out: DRC result, IC50
[4] = 8-point curve from 30 μM, triplicates, 4PL fit, read-out: DRC result, pIC50 (converted)

T1 sequence (P51617 whole entry): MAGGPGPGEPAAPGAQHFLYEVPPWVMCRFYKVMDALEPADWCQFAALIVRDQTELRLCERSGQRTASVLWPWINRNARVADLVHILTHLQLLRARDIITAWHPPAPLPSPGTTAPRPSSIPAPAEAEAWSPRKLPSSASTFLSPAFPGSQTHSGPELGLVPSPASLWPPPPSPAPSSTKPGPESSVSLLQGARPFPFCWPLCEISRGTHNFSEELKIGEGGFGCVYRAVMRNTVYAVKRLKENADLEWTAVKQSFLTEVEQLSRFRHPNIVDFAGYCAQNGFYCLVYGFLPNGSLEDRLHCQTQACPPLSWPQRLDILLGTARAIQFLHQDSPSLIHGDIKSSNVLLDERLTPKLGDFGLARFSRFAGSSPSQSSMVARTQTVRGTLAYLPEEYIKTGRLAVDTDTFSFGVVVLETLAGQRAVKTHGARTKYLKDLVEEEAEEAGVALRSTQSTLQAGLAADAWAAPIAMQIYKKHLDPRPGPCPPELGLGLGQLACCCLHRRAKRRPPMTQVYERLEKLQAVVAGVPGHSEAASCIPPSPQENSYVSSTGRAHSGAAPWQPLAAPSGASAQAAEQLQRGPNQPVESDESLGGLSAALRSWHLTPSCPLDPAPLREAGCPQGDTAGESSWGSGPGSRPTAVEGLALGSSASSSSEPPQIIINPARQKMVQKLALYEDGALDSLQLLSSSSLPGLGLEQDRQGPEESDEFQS

Structure (SMILES)	IC50 (IRAK1 [1]; [3]) [nM]	IC50 (IRAK1 [1]; [4]) [nM]	DRC result, activity class (IRAK1 [1])	DRC result, pIC50 (IRAK1 [1]; 8-point curve from 30 μM, triplicates, 4PL fit)	IC50 (IRAK1 [2]) [nM]
CNc1cc2c(cn1)cc(-c1ccc(F)c(NC(=O)Nc3cc(C(C)(C)C)nn3C)c1)c(=O)n2C(C)C [A1]	90	91.2	nanomolar		
Cc1nc(Nc2ncc(F)c(-c3cc(F)c4nc(C)n(C(C)C)c4c3)n2)ccc1N1CCN(C(C)C)CC1 [B1]	20	19.1	nanomolar		
CCN1CCN(Cc2ccc(Nc3ncc(F)c(-c4cc(F)c5nc(C)n(C6CC6)c5c4)n3)nc2)CC1 [B2]	60	63.1	nanomolar		
CC(C)(C)c1cc(NC(=O)NCc2ccc(-c3cnc4cc(-c5ccncc5)ccn34)cc2)n[nH]1 [C1]	100		nanomolar	7.00	
CC(C)Cc1ccnc(NC(=O)Cc2ccc(-c3cnc4cc(-c5ccncc5)ccn34)cc2F)c1 [C2]	50	52.5	nanomolar		
C=CC(=O)Nc1cccc(C(=O)Nc2ccc(NC(=O)c3cccc(-c4ccn[nH]4)n3)cc2)c1 [JH-X-119-01]					9
